We go through two molecules from patent US20220204654A1, “CYCLODEXTRIN SUPRAMOLECULAR SCAFFOLDS AND USES THEREOF” (Massachusetts Institute of Technology, priority 2019, published 2022).

Experiment [1] can be described thus: Isothermal titration calorimetry (ITC) glucose binding assay. The conditions noted are these: ITC binding isotherm, read-out: binding affinity (Kd). The procedure:
Binding studies were then carried out using isothermal titration calorimetry (ITC) to measure thermodynamic properties during binding. ITC was chosen as the preferred method to confirm binding of glucose as this assay excludes the possibilities of any false positive data. The ITC based binding assay needed significant optimization with respect to macromolecule concentration, choice of buffer, ways of desalting, concentration of the glucose solution, etc.

The conditions of experiment [2]: unmodified cyclodextrin with adamantine (AD), comparison statement; cited from earlier work.

Broadly, the Kd is a measure of binding affinity in units of concentration. In the case of `OCC1O[C@@H]2O[C@@H]3C(CO)O[C@H](O[C@@H]4C5CSCc6ccc(cc6)-c6ccc(cc6)CSCC6O[C@H](O[C@@H]7C(CO)O[C@H](O[C@H]1C(O)C2O)C(O)C7O)C(O)C(O)[C@@H]6O[C@H]1OC(CO)[C@@H](O[C@H]2OC(CO)[C@@H](O[C@@H](O5)C(O)C4O)C(O)C2O)C(O)C1O)C(O)C3O` (some centres unmarked) [CDC1], the Kd in experiment [1] was around 5 mM. Regarding cyclodextrin, in experiment [2], the dissociation constant entry was “micromolar range”.
